# Reference: patent US20080293759A1, “Method for Treating Cancer Based on the Modulation of Calcineurin” (Centre National De La Recherche, priority 2005, published 2008)
# What was measured:
# [1] = tested on: NFAT2; assay: ICN1 leukemic cells in culture with CsA or ionomycin, NFAT2 western blot; type: cell-based, mouse; conditions: ICN1 leukemic cells maintained in culture for 60 minutes
# Protocol: Phosphorylated and de-phosphorylated isoforms are indicated by coloured arrows.
# Leukemia-derived primary cells and leukemia cell lines (TEL-JAK2, ICN1 and ERP15-14) were maintained in RPMI 1640 supplemented with 10% foetal calf serum, 100 U/ml penicillin, 100 μg/ml streptomycin, 2 mM glutamine (all from Life Technologies) and […] 2-βmercaptoethanol (Sigma).
# Total cellular extracts prepared from cells obtained directly from diseased animals or control littermates or harvested at the indicated times following culture, were resolved by SDS-PAGE and subjected to immunoblot analysis with the indicated antibody (Ab). The NFAT1(sc-7296), NFAT2 (sc-7294), NFAT4 (sc-8321), STAT5 (C-17; sc-835) antibodies were purchased from Santa Cruz Biotechnology. The phosphotyrosine-STAT5 antibody (05-495) was purchased from Upstate Biotechnology. The pan-NFAT Ab (796) was kindly provided by Dr. Nancy Rice.
# [2] = tested on: NFATc1, NFATc2, NFATc3; assay: Thymocytes ex vivo with CsA or ionomycin, NFAT western blot; type: cell-based, mouse; conditions: unstimulated thymocytes ex vivo, 1 μg/ml, 60 minutes
smiles,measurement,setting,value
C[C@H](CCC(=O)O)C[C@H](C)C[C@H](C)C(=O)/C=C(\O)[C@H](C)C[C@H](C)C/C=C/[C@@H](C)[C@@H](O)[C@@H](C)[C@@H](O)C[C@@H]1CC[C@@](C)([C@H]2CC[C@@](C)([C@@H](C)O)O2)O1 [ionomycin],NFAT2 isoform migration (phosphorylation),[1],indistinguishable from that observed in ICN1 non-treated leukemic cells
same,"NFATc1, NFATc2, NFATc3 phosphorylation",[2],fully dephosphorylated
